Assay results: patent publication EP1212335B1, “GLUCOPYRANOSIDES CONJUGATES OF 2-(4-HYDROXY-PHENYL)-1- 4-(2-AMIN-1-YL-ETHOXY)-BENZYL]-1H-INDOL-5-OLS” (Wyeth, priority 1999, dated 2001)
pIC50: −log10 of the molar value.

Target: T1, estrogen receptor (Homo sapiens, UniProt P03372)
T1 construct: since the MCF-7 cells express estrogen receptors; endogenous in cells; host or cells: MCF-7 human mammary carcinoma cells, infected with adenovirus 5-ERE-tk-luciferase (reporter only)
T1 sequence (P03372 1-595): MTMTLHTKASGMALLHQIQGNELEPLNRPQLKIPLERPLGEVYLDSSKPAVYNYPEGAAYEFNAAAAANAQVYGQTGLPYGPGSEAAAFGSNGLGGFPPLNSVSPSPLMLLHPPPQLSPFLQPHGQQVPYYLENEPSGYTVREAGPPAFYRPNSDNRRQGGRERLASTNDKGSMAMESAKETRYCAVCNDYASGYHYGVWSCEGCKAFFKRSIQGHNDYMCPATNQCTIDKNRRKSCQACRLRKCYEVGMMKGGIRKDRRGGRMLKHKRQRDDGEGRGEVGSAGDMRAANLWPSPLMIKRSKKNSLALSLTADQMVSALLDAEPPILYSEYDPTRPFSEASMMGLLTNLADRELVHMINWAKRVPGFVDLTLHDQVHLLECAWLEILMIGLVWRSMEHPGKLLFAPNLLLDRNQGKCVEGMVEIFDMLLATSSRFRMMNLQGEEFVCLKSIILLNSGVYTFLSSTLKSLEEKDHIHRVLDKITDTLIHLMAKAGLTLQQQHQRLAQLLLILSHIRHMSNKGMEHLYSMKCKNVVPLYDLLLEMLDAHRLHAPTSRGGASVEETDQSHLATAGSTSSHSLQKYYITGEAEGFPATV
Assay: Estrogen antagonist/agonist activity in MCF-7 cells infected with adenovirus 5-ERE-tk-luciferase (luciferase reporter)
Assay type: cell-based
Conditions: antagonist mode, co-dosed with 10 pM 17β-estradiol, 24 h treatment
Description: Estrogen antagonist activity was shown for representative compounds of this invention in a standard pharmacological test procedure using MCF-7 cells transfected with an estrogen receptor. When administered orally, the compounds of this invention act at least partially as prodrugs for the corresponding hydroxylated compounds disclosed in EP 802183. Accordingly, the compounds of this invention are tissue selective estrogens, meaning that in certain tissue containing estrogen receptors, the compounds will act as estrogen agonists, and in other tissue containing estrogen receptors, the compounds will act as antagonists. […] The cell lysates (20 uL) were transferred to a 96 well luminometer plate, and luciferase activity was measured in a MicroLumat LB 96 P luminometer (EG and G Bethold) using 100 uL/well of luciferase substrate (Promega Corporation). […] Following the injection of the substrate, luciferase activity was measured for 10 seconds after a 1 second delay. The data were transferred from the luminometer to a Macintosh personal computer and analyzed using the JMP software (SAS institute); this program subtracts the background reading from the luciferase measurement for each well and then determine the mean and standard deviation of each treatment. […]

Row | pIC50 | SMILES
1 | 5.96 | Cc1c(-c2ccc(OC3OC(C(=O)O)C(O)C(O)C3O)cc2)n(Cc2ccc(OCCN3CCCCCC3)cc2)c2ccc(O)cc12 (centres unmarked) [Compound 38, 1-[4-(2-Azepan-1-yl-ethoxy)-benzyl]-2-(4-hydroxy-phenyl)-3-methyl-1H-indol-5-ol 4-O-glucuronide]
2 | 6.68 | Cc1c(-c2ccc(O)cc2)n(Cc2ccc(OCCN3CCCCCC3)cc2)c2ccc(OC3OC(C(=O)O)C(O)C(O)C3O)cc12 (centres unmarked) [Compound 30, 1-[4-(2-Azepan-1-yl-ethoxy)-benzyl]-2-(4-hydroxy-phenyl)-3-methyl-1H-indol-5-ol 5-O-glucuronide]
